# Source: patent US11014941B2, “Pyrrolopyrimidine derivatives useful as inhibitors of influenza virus replication” (priority 2017, dated 2021)
# Target: Influenza PB2 (Influenza A virus, UniProt P03428)
# Experiment: biochemical
# Assay type: binding
# Conditions: read-out: Influenza PB2 affinity, IC50
# Influenza PB2, sequence (P03428 whole entry, looked up): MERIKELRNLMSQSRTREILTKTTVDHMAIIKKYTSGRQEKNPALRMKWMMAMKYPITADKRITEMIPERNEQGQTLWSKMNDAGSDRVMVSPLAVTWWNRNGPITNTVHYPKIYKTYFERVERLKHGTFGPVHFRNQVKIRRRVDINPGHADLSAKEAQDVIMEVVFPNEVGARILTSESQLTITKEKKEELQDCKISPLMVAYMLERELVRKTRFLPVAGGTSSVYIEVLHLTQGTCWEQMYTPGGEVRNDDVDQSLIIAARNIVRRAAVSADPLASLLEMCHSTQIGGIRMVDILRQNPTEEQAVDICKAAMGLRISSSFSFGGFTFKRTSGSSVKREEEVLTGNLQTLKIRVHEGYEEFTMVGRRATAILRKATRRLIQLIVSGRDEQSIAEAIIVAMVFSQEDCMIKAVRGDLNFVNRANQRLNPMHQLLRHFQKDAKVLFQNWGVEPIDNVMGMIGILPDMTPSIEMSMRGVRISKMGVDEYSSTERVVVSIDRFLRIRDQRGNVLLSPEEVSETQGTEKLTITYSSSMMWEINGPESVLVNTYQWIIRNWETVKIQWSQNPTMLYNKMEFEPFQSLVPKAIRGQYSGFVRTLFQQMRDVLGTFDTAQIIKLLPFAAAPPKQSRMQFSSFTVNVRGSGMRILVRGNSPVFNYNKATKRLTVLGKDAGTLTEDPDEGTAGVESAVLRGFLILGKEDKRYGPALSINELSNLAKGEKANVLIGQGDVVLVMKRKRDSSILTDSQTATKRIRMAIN
row,Structure (SMILES),IC50 [µM]
1,O=C(O)CCN1CCc2cnc(-c3c[nH]c4ncc(F)cc34)nc21 [Compound B13],10 to 100
2,COC(=O)[C@H](C)NC(=O)Cn1ccc2c(-c3c[nH]c4ncc(F)cc34)ncnc21 [Compound A10],10 to 100
3,O=C(O)CCn1cc(-c2c[nH]c3ncc(F)cc23)c2cncnc21 [Compound C5],> 100
4,CCOCCOCCOCCNC(=O)[C@H]1CCC[C@H](n2ccc3cnc(-c4c[nH]c5ncc(F)cc45)nc32)C1 [Compound B47],> 100
5,O=C(O)C1=C(n2cc(F)c3cnc(-c4c[nH]c5ncc(F)cc45)nc32)C2CCC1CC2 [Compound B222],< 1
6,CCOC(=O)[C@@H]1C2CCC(CC2)[C@H]1n1cc(F)c2cnc(-c3c[nH]c4ncc(C#N)cc34)nc21 [Compound B215],> 100
7,CCOC(=O)[C@@H]1C2CCC(CC2)[C@H]1n1cc(CCCCSC)c2cnc(-c3c[nH]c4ncc(F)cc34)nc21 [Compound B201],> 100
8,O=C(O)[C@@H]1C2CCC(CC2)[C@H]1n1ccc2ccc(-c3c[nH]c4ncc(F)cc34)nc21 [Compound B205],1 to 10
9,CCOCCOCCOCCNC(=O)[C@@H]1CCCC[C@@H]1n1ccc2cnc(-c3c[nH]c4ncc(F)cc34)nc21 [Compound B30],10 to 100
10,CCOC(=O)[C@@H]1C2CCC(CC2)[C@H]1n1cc(-c2cccc(O)c2)c2cnc(-c3c[nH]c4ncc(F)cc34)nc21 [Compound B182],1 to 10
11,CSCCCCc1cn([C@@H]2C3CCC(CC3)[C@H]2C(=O)O)c2nc(-c3c[nH]c4ncc(F)cc34)ncc12 [Compound B192],< 1
12,CCOC(=O)[C@H]1C2CCC(CC2)[C@@H]1n1cc(F)c2cnc(-c3c[nH]c4ncc(F)cc34)nc21 [Compound B129],10 to 100
13,"O=C(O)[C@H]1C2CCC(CC2)C1n1cc(Cl)c2cnc(-c3c[nH]c4ncc(F)cc34)nc21 (single isomer, unassigned) [Compound B133]",< 1
14,CCOC(=O)[C@@H]1C2CCC(CC2)[C@H]1n1cc(C(C)C)c2cnc(-c3c[nH]c4ncc(F)cc34)nc21 [Compound B180],10 to 100
15,CCOCCOCCOCCN(C)C(=O)N[C@H]1CCC[C@@H](n2ccc3cnc(-c4c[nH]c5ncc(F)cc45)nc32)C1 [Compound B29],10 to 100
16,CCOC(=O)c1cn([C@@H]2C3CCC(CC3)[C@H]2C(=O)O)c2nc(-c3c[nH]c4ncc(Cl)cc34)ncc12 [Compound B207],< 1
17,CCOC(=O)[C@@H]1C2CCC(CC2)[C@H]1n1cc(-c2ccncc2)c2cnc(-c3c[nH]c4ncc(F)cc34)nc21 [Compound B176],10 to 100
18,"CNC(=O)[C@@H]1C2CCC(CC2)C1n1cc(F)c2cnc(-c3c[nH]c4ncc(Cl)cc34)nc21 (single isomer, unassigned) [Compound B194]",1 to 10
19,CCOC(=O)[C@]1(C)CCCC[C@H]1n1cc(F)c2cnc(-c3c[nH]c4ncc(F)cc34)nc21 [Compound B90],> 100
20,COC(=O)[C@@H]1C2CCC(CC2)[C@H]1n1cc(-c2ccccc2O)c2cnc(-c3c[nH]c4ncc(F)cc34)nc21 [Compound B170],10 to 100
21,COC(=O)[C@H](CO)NC(=O)CCn1ccc2c(-c3c[nH]c4ncc(F)cc34)ncnc21 [Compound A19],10 to 100
22,CN(C)C(=O)NCCn1cc(-c2c[nH]c3ncc(F)cc23)c2cncnc21 [Compound C16],> 100
23,CN(C)C(=O)c1cn([C@@H]2C3CCC(CC3)[C@H]2C(=O)O)c2nc(-c3c[nH]c4ncc(Cl)cc34)ncc12 [Compound B204],< 1

row,Structure (SMILES),IC50 [µM]
1,O=C(Cn1ccc2c(-c3c[nH]c4ncc(F)cc34)ncnc21)N[C@@H](CO)C(=O)O [Compound A20],1 to 10
2,O=C(O)[C@@H]1C2CCC(CC2)[C@H]1n1cc(-c2ccsc2)c2cnc(-c3c[nH]c4ncc(F)cc34)nc21 [Compound B162],< 1
3,CC(C)(C)OC(=O)N[C@@H]1C2CCC(CC2)[C@H]1n1cc(Cl)c2cnc(-c3c[nH]c4ncc(F)cc34)nc21 [Compound B172],> 100
4,O=C(O)/C=C/n1ccc2cnc(-c3c[nH]c4ncc(F)cc34)nc21 [Compound B18],10 to 100
5,CCOCCCCCOCCN(C)C(=O)N[C@@H]1CCC[C@H](n2ccc3cnc(-c4c[nH]c5ncc(F)cc45)nc32)C1 [Compound B41],10 to 100
6,CCCCCOCCCCCNC(=O)N[C@H]1CCC[C@@H](n2ccc3cnc(-c4c[nH]c5ncc(F)cc45)nc32)C1 [Compound B49],> 100
7,O=C(O)[C@@H]1C2CCC(CC2)[C@H]1n1cc(F)c2cnc(-c3c[nH]c4ncc(C(F)(F)F)cc34)nc21 [Compound B216],1 to 10
8,CN(C)C(=O)N1CCCC(Cn2cc(F)c3cnc(-c4c[nH]c5ncc(F)cc45)nc32)C1 (stereo not drawn) [Compound B75],10 to 100
9,CNC(=O)[C@H]1C2CCC(CC2)[C@@H]1n1cc(Cl)c2cnc(-c3c[nH]c4ncc(F)cc34)nc21 [Compound B141],1 to 10
10,O=C(O)[C@@H]1C2CCC(CC2)[C@H]1n1cc(C(F)(F)F)c2cnc(-c3c[nH]c4ncc(F)cc34)nc21 [Compound B151],< 1
11,CCOCCOCCOCC(=O)N[C@@H]1CCC[C@H](n2ccc3cnc(-c4c[nH]c5ncc(F)cc45)nc32)C1 [Compound B28],10 to 100
12,"O=C(O)[C@@H]1C2CCC(CC2)C1n1cc(-c2ccncc2)c2cnc(-c3c[nH]c4ncc(Cl)cc34)nc21 (single isomer, unassigned) [Compound B190]",1 to 10
13,O=C(N[C@H]1CCC[C@@H](n2cc(F)c3cnc(-c4c[nH]c5ncc(Cl)cc45)nc32)C1)c1ccccn1 [Compound B96],> 100
14,O=C(O)[C@@H]1C2CCC(CC2)[C@H]1n1cc(C#CC2CC2)c2cnc(-c3c[nH]c4ncc(F)cc34)nc21 [Compound B153],< 1
15,CCOCCCCCOCCNC(=O)N1CCC[C@H](n2ccc3cnc(-c4c[nH]c5ncc(F)cc45)nc32)C1 [Compound B35],10 to 100
16,CNC(=O)N[C@H]1C2CCC(CC2)[C@@H]1n1cc(Cl)c2cnc(-c3c[nH]c4ncc(F)cc34)nc21 [Compound B168],1 to 10
17,CCOC(=O)C(C)Cn1cc(-c2c[nH]c3ncc(F)cc23)c2cncnc21 (stereo not drawn) [Compound C17],> 100
18,CC(C)(C)OC(=O)N1CCC(Cn2cc(F)c3cnc(-c4c[nH]c5ncc(F)cc45)nc32)CC1 [Compound B78],> 100
19,CNC(=O)N[C@H]1CC[C@@H](n2ccc3cnc(-c4c[nH]c5ncc(F)cc45)nc32)CC1 [Compound B68],1 to 10
20,N#Cc1cnccc1-c1cn([C@@H]2C3CCC(CC3)[C@H]2C(=O)O)c2nc(-c3c[nH]c4ncc(Cl)cc34)ncc12 [Compound B220],10 to 100
21,CCOCCOCCOCCNC(=O)[C@@H]1CCCC[C@H]1n1ccc2cnc(-c3c[nH]c4ncc(F)cc34)nc21 [Compound B25],1 to 10
22,CCCCCOCCOCCNC(=O)N[C@H]1CCC[C@@H](n2ccc3cnc(-c4c[nH]c5ncc(F)cc45)nc32)C1 [Compound B36],> 100
23,O=C(O)[C@@H]1C2CCC(CC2)[C@H]1n1cc(-c2ccncc2Cl)c2cnc(-c3c[nH]c4ncc(Cl)cc34)nc21 (relative stereo) [Compound B212],1 to 10

row,Structure (SMILES),IC50 [µM]
1,CC(=O)N[C@H]1C2CCC(CC2)[C@@H]1n1cc(Cl)c2cnc(-c3c[nH]c4ncc(F)cc34)nc21 [Compound B166],10 to 100
2,CCCCCOCCCCC(=O)N[C@H]1CCC[C@@H](n2ccc3cnc(-c4c[nH]c5ncc(F)cc45)nc32)C1 [Compound B50],> 100
3,CCOC(=O)[C@@H]1C2CCC(CC2)[C@H]1n1cc(-c2ccsc2)c2cnc(-c3c[nH]c4ncc(F)cc34)nc21 [Compound B183],10 to 100
4,CN(C)C(=O)N1CCC(Cn2cc(F)c3cnc(-c4c[nH]c5ncc(F)cc45)nc32)CC1 [Compound B63],10 to 100
5,N[C@H]1CC[C@@H](n2ccc3cnc(-c4c[nH]c5ncc(F)cc45)nc32)CC1 [Compound B69],10 to 100
6,O=C(O)[C@@H]1C2CCC(CC2)[C@H]1n1cc(-c2ccc(O)cc2)c2cnc(-c3c[nH]c4ncc(F)cc34)nc21 [Compound B160],1 to 10
7,O=C(O)Cn1ccc2c(-c3c[nH]c4ncc(F)cc34)ncnc21 [Compound A3],1 to 10
8,"O=C(O)[C@@H]1C2CCC(CC2)C1n1cc(F)c2cnc(-c3c[nH]c4ncc(Cl)cc34)nc21 (single isomer, unassigned) [Compound B144]",< 1
9,COC(=O)CNC(=O)Cn1ccc2cnc(-c3c[nH]c4ncc(F)cc34)nc21 [Compound B10],> 100
10,CN(C)C(=O)N1CCCCC1Cn1cc(F)c2cnc(-c3c[nH]c4ncc(F)cc34)nc21 (stereo not drawn) [Compound B86],1 to 10
11,COC(=O)[C@H]1CCCN1C(=O)Cn1ccc2c(-c3c[nH]c4ncc(F)cc34)ncnc21 [Compound A15],> 100
12,CNC(=O)Cn1cc(-c2c[nH]c3ncc(F)cc23)c2cncnc21 [Compound C9],10 to 100
13,CN(C)C(=O)Cn1ccc2cnc(-c3c[nH]c4ncc(F)cc34)nc21 [Compound B1],10 to 100
14,COC(=O)CCn1ccc2c(-c3c[nH]c4ncc(F)cc34)ncnc21 [Compound A2],10 to 100
15,CN(C)C(=O)Cn1cc(-c2c[nH]c3ncc(F)cc23)c2cncnc21 [Compound C1],10 to 100
16,CCOC(=O)[C@]1(C)CCCC[C@H]1n1cc(F)c2cnc(-c3c[nH]c4ncc(Cl)cc34)nc21 [Compound B88],> 100
17,O=C(O)[C@H]1CCC[C@@H]1n1ccc2cnc(-c3c[nH]c4ncc(F)cc34)nc21 [Compound B16],1 to 10
18,CCOC(=O)[C@@H]1C2CCC(CC2)[C@H]1n1cc(-c2ccc(O)cc2)c2cnc(-c3c[nH]c4ncc(F)cc34)nc21 [Compound B178],10 to 100
19,CCOC(=O)[C@H]1C2CCC(CC2)[C@@H]1n1cc(Cl)c2cnc(-c3cn(S(=O)(=O)c4ccc(C)cc4)c4ncc(F)cc34)nc21 [Compound B125],> 100
20,CCOCCOCCOCCNC(=O)N[C@H]1CCC[C@@H](n2ccc3cnc(-c4c[nH]c5ncc(F)cc45)nc32)C1 [Compound B27],10 to 100
21,O=C(O)[C@@H]1C2CCC(CC2)C1n1cc(Cl)c2cnc(-c3c[nH]c4ncc(F)cc34)nc21 (stereo partly drawn) [Compound B138],< 1
22,C[C@@]1(C(=O)O)CCCC[C@H]1n1cc(C(F)(F)F)c2cnc(-c3c[nH]c4ncc(F)cc34)nc21 [Compound B74],< 1
23,CN(C)C(=O)N[C@H]1CC[C@@H](n2ccc3cnc(-c4c[nH]c5ncc(F)cc45)nc32)CC1 [Compound B70],10 to 100
